The target in this assay is T1, Urokinase-type plasminogen activator [179-424,C299A,N323Q] (Human, UniProt P00749, C299A/N323Q).
T1 construct: 179-424
The assay is described as follows: Photometric_Method1.

Each structure is given as a SMILES string.

Ki data for 35 molecules are collected here from BindingDB's records for doi:10.7270/Q24B305P (D3R/Abbott, 2015).

The molecule `CC(C)CN(CC(C)C)C(=O)c1ccc2ccc(N)nc2c1` [uPa_34] returned a Ki of over 100000 nM.
In turn, `N=C(N)c1ccc2cc(NS(=O)(=O)c3ccccc3)ccc2c1` [uPa_14] came in with a Ki of 8700 nM.
Consider `N=C(N)c1ccc2cc(C#Cc3cccc(OC4CCCC4)c3)ccc2c1` [uPa_25], for which the inhibitory constant (Ki) was 665 nM.
The same measure for `N#CC(CCOc1cccc2ccc(N)nc12)(c1ccccc1)c1ccccc1` [uPa_16]: over 40000 nM.
With `COC(=O)Nc1cc(C(=O)Nc2ccccc2)cc2ccc(C(=N)N)cc12` [uPa_36], the affinity corresponds to a Ki of 18 nM.
`COC/C=C/c1cc(C2CC2c2ccc3c(c2)C(C(C)C)N(C)CC3)cc2ccc(C(=N)N)cc12` (stereo not given) [uPa_39] returned an inhibition constant (Ki) of 21 nM.
As to `CCOc1cc(OCC)c(OCC)cc1/C=C/c1cc(Br)c2cc(C(=N)N)ccc2c1` [uPa_38], the Ki came to 777 nM.
For `CC(C)C1=NCCc2ccc(NC(=O)c3cc(Br)c4cc(C(=N)N)ccc4c3)cc21` [uPa_26], the Ki is 15.7 nM.
The same measure for `COC(=O)Nc1cc(C(=O)Nc2ccc(CN)cc2)cc2ccc(C(=N)N)cc12` [uPa_17]: 0.892 nM; for `CN1CCc2ccc(C3CC3c3ccc4cc(C(=N)N)ccc4c3)cc2C1C1CCC1` (stereo not given) [uPa_41]: 42 nM; for `CC(C)Oc1ccc2cc(C(=N)N)ccc2c1` [uPa_5]: 7280 nM.
Molecule `N=C(N)NC(=O)c1ccc(Cl)c(S(N)(=O)=O)c1` [uPa_45] showed an inhibition constant (Ki) of over 100000 nM.
The same measure for `COC(=O)Nc1ccc2nc(C(=N)N)ccc2c1` [uPa_27]: over 50000 nM; for `N=C(N)NC(=O)c1nc(Cl)c(NCc2cc(Cl)cc(Cl)c2)nc1N` [uPa_22]: 3570 nM; for `N=C(N)c1ccc2ccccc2c1` [Naphthalene-2-carboxamidine]: 5910 nM.
Regarding `N=C(N)c1ccc2cc(C(=O)Nc3ccccc3)cc(-c3ncccn3)c2c1` [uPa_21], the Ki is 7850 nM.
In turn, `CC(C)C1c2cc(C3CC3c3cc(/C=C/C4CC4)c4cc(C(=N)N)ccc4c3)ccc2CCN1C` (stereo not given) [uPa_43] gave a Ki of 9 nM.
Turning to `COc1cc(NC(=O)c2ccc3cc(C(=N)N)ccc3c2)cc(OC(C)C)c1` [uPa_28], the inhibitory constant (Ki) was determined as 33.3 nM.
`Nc1cc2ccccc2cn1`: the inhibition constant Ki was over 30000 nM.
For the molecule `C=CCNC(=O)Nc1cccc2ccc(N)nc12` [uPa_30], the Ki is over 10000 nM.
As for `N=C(N)c1ccc2cc(C(=O)Nc3ccc4c(c3)C(c3ccccc3)=NCC4)ccc2c1` [uPa_29], the Ki amounted to 290 nM.
`CN1CCc2ccc(C3CC3c3ccc4cc(C(=N)N)ccc4c3)cc2C1c1cccnc1` (stereo not given) [uPa_44] showed an inhibitory constant (Ki) of 1250 nM.
The figure for `CS(=O)(=O)n1cc(-c2cc(C(=O)Nc3ccccc3)cc3ccc(C(=N)N)cc23)cn1` [uPa_20] is 769 nM; for `CN(CC#N)C(=O)c1ccc2ccc(N)nc2c1` [uPa_35] it is over 100000 nM.
As for `COC(=O)Nc1ccc2nc(N)ccc2c1` [uPa_24], the Ki was over 50000 nM.
The figure for `Nc1ccc2nc(N)ccc2c1` [uPa_23] is over 104000 nM; for `COc1cc(C2CC2c2ccc3c(c2)C(C(C)C)N(C)CC3)cc2ccc(C(=N)N)cc12` (stereo not given) [uPa_42] it is 94 nM; for `CS(=O)(=O)Nc1cc(CCc2ccccc2)cc2ccc(C(=N)N)cc12` [uPa_37] it is 1490 nM.
Consider `N=C(N)c1ccc2cc(/C=C/CCc3cccnc3)cc(Br)c2c1` [uPa_32], for which the affinity, expressed as Ki, was 3080 nM.
Molecule `C#CCN(C)C(=O)c1ccc2ccc(N)nc2c1` [uPa_33] came in with a Ki of over 100000 nM.
The same measure for `COc1ccc2ccc(C(=N)N)cc2c1-c1cnn(C(C)C)c1` [uPa_11]: 4500 nM; for `CN1CCc2ccc(/C=C/c3ccc4cc(C(=N)N)ccc4c3)cc2C1C1CCCCC1` (stereo not given) [uPa_40]: 223 nM.
The figure for `N=C(N)c1ccc2cc(C(=O)Nc3ccc4c(c3)C(C3CCCCC3)=NCC4)ccc2c1` [uPa_31] is 66.3 nM; for `Nc1cnc2ccccc2n1` [uPa_1] it is over 50000 nM.
`COc1cc2ccc(C(=N)N)cc2c(OC)c1OC` [uPa_2]: the inhibition constant (Ki) was found to be 8030 nM.
